System: 287954-098-R-J1 tumor spheroid viability
Assay: Anticancer human tumor 287954-098-R-J1 patient-derived Ewing sarcoma cell line growth inhibition
Conditions: spheroids with HUVEC and MSC; for IC50: curve of first compound; for viability, T/C: stronger effect = lower value
Text: Multicellular complex tumor spheroid response to DNA repair inhibitors in combination with DNA-damaging drugs
This study explores the anticancer activities of DNA-damaging drugs and inhibitors of DNA damage repair, both as single agents and in combinations. Complex tumor spheroids comprised of malignant cells, endothelial cells and mesenchymal stem cells served as an in vitro model for human solid tumors. This model system incorporates physiologically relevant features and patient-derived or established malignant cell lines with clinically relevant genetic alterations from many tumor types. Twenty-six patient-derived or established malignant cell lines were evaluated representing sarcoma, melanoma, small cell lung cancer (SCLC), non-small cell lung cancer (NSCLC), as well as bladder, ovarian and pancreatic cancers. The concentration ranges selected for each drug and investigational agent were based upon clinically achievable concentrations if the clinical Cmax of the agent was known.
Compounds. The drugs and compounds olaparib (NSC753686), talazoparib (NSC767125), berzosertib (NSC777718), elimusertib (NSC800525), nedisertib (NSC802822), VX-984 (NSC792969), AZD-1390 (NSC803789), temozolomide (NSC362856), topotecan (NSC609699), trabectedin (NSC813783), staurosporine (NSC755774), and gemcitabine (NSC613327) were obtained from the National Cancer Institute (NCI) Developmental Therapeutics Program Chemical Repository. The FDA-approved anticancer drug set is available from the Developmental Therapeutics Program at https://dtp.cancer.gov/organization/dscb/obtaining/available_plates.htm. […] The stock solutions were prepared in dimethyl sulfoxide (DMSO, Sigma-Aldrich, St. Louis, MO, cat. D2650) at 400-fold the tested concentration and stored at -70 degrees C. Prior to their use, the stock solutions were diluted in fresh medium and the final DMSO concentration in the assay was 0.25% (v/v). All drugs and investigational agents were tested over a range starting from a high concentration at or near the clinical Cmax and decreasing in half-log increments. If the clinical Cmax for an agent had not been determined, the highest concentration tested was 10 microM.
Cell Lines. The patient-derived cancer cell (PDC) lines: 156681-154-R-J1-PDC, 283228-195-R-J1-PDC, 287954-098-R-J1-PDC, 292921-168-R-J2-PDC, 349418-098-R-PDC, 425362-245-T-J1-PDC, 556581-035-R-J1-PDC, and BL0293-F563-PDC were received from the NCI Patient-Derived Models Repository (PDMR, https://pdmr.cancer.gov). The established cell lines HS-SY-2 (RRID:CVCL_8719), MPNST, and SYO-1 (RRID:CVCL_7146) were obtained from the Sloan Kettering Institute. The alveolar soft parts sarcoma cell line ASPS-1 (RRID:CVCL_S738) was established at the NCI and grown from internal seed stocks. The following established cell lines were purchased from the American Type Culture Collection (ATCC, Manassas, VA): G-401 (ATCC, cat. CRL-1441, RRID:CVCL_0270), SW982 (ATCC, cat. HTB-93, RRID:CVCL_1734), VA-ES-BJ (ATCC, cat. CRL-2138, RRID:CVCL_1785), NCI-H719 (ATCC, cat. CRL-5837, RRID:CVCL_1582), NCI-H196 (ATCC, cat. CRL-5823, RRID:CVCL_1509), NCI-H841 (ATCC, cat. CRL-5845, RRID:CVCL_1595), NCI-H1618 (ATCC, cat. CRL-5879, RRID:CVCL_1480), NCI-H1876 (ATCC, cat. CRL-5902, RRID:CVCL_1503), DMS 114 (ATCC, cat. CRL-2066; RRID:CVCL_1174), NCI-H211 (ATCC, cat. CRL-5824; RRID:CVCL_1529), and SW 1271 (ATCC, cat. CRL-2177, RRID:CVCL_1716). The small cell lung cancer cell line COR-L88 was purchased from Sigma-Aldrich (cat. 92031917-1VL, RRID:CVCL_1141). The non-small cell lung cancer cell lines NCI-H226 (RRID:CVCL_1544) and NCI-H322M (RRID:CVCL_1557) were established at the NCI and grown from internal seed stocks. Pooled donor human umbilical vein endothelial cells (HUVEC, Lonza, cat. CC-2519) and human mesenchymal stem cells (hMSC, Lonza, cat. PT-2501) were purchased from Lonza (Walkersville, MD).
Cell Culture. All cells were maintained in an incubator at 37 degrees C and 5% CO2 with 95% humidity. […]
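Note: spheroids exposed to compound for 7 days before viability readout.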
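Throughout, for viability, T/C: luminescent signal taken as surrogate of viable cell content; 100% = DMSO vehicle control viability and lower means growth inhibition.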

Work on `Cn1ncnc1[C@H]1c2n[nH]c(=O)c3cc(F)cc(c23)N[C@@H]1c1ccc(F)cc1` + CC[C@@]1(O)C(=O)OCc2c1cc1n(c2=O)Cc2cc3c(CN(C)C)c(O)ccc3nc2-1 yielded an IC50 (second compound 0.003 µM) of 453 nM, an IC50 (second compound 0.00949 µM) of 74.8 nM and an IC50 (second compound 0.03 µM) of less than 9.49 nM. The IC50 (second compound 0.0949 µM) was less than 9.49 nM, the IC50 (second compound 0.3 µM) was less than 9.49 nM and the viability, T/C (second compound 0.003 µM, first compound 0.00949 µM) was 99.9%. For the same compound, the viability, T/C (second compound 0.003 µM, first compound 0.03 µM) was 97.6%, the viability, T/C (second compound 0.003 µM, first compound 0.0949 µM) was 105% and the viability, T/C (second compound 0.003 µM, first compound 0.3 µM) was 76.4%. It also gave a viability, T/C (second compound 0.003 µM, first compound 0.949 µM) of 2.29%, a viability, T/C (second compound 0.003 µM, first compound 3 µM) of 2.4% and a viability, T/C (second compound 0.00949 µM, first compound 0.00949 µM) of 90.6%. It also gave a viability, T/C (second compound 0.00949 µM, first compound 0.03 µM) of 74.2%, a viability, T/C (second compound 0.00949 µM, first compound 0.0949 µM) of 45.6% and a viability, T/C (second compound 0.00949 µM, first compound 0.3 µM) of 2.19%. For the same compound, the viability, T/C (second compound 0.00949 µM, first compound 0.949 µM) was 2.05%, the viability, T/C (second compound 0.00949 µM, first compound 3 µM) was 2.02% and the viability, T/C (second compound 0.03 µM, first compound 0.00949 µM) was 2.23%. The viability, T/C (second compound 0.03 µM, first compound 0.03 µM) was 1.81%, the viability, T/C (second compound 0.03 µM, first compound 0.0949 µM) was 2.46% and the viability, T/C (second compound 0.03 µM, first compound 0.3 µM) was 2.34%. For the same compound, the viability, T/C (second compound 0.03 µM, first compound 0.949 µM) was 1.82%, the viability, T/C (second compound 0.03 µM, first compound 3 µM) was 2.07% and the viability, T/C (second compound 0.0949 µM, first compound 0.00949 µM) was 1.93%. It also gave a viability, T/C (second compound 0.0949 µM, first compound 0.03 µM) of 1.99%, a viability, T/C (second compound 0.0949 µM, first compound 0.0949 µM) of 2.15% and a viability, T/C (second compound 0.0949 µM, first compound 0.3 µM) of 1.75%. For the same compound, the viability, T/C (second compound 0.0949 µM, first compound 0.949 µM) was 2.09%, the viability, T/C (second compound 0.0949 µM, first compound 3 µM) was 1.72% and the viability, T/C (second compound 0.3 µM, first compound 0.00949 µM) was 1.85%. It also gave a viability, T/C (second compound 0.3 µM, first compound 0.03 µM) of 1.99%, a viability, T/C (second compound 0.3 µM, first compound 0.0949 µM) of 1.97% and a viability, T/C (second compound 0.3 µM, first compound 0.3 µM) of 1.59%. It also gave a viability, T/C (second compound 0.3 µM, first compound 0.949 µM) of 1.85% and a viability, T/C (second compound 0.3 µM, first compound 3 µM) of 1.48%.
For `COc1cc(C)[nH]c(=O)c1CN1CCc2c(Cl)cc(C(OC)C3COC3)c(Cl)c2C1=O` (stereo not given) + Cn1nnc2c(C(N)=O)ncn2c1=O, the IC50 (second compound 1 µM) was greater than 10000 nM, the IC50 (second compound 3.16 µM) was greater than 10000 nM and the IC50 (second compound 10 µM) was greater than 10000 nM. The IC50 (second compound 31.6 µM) was greater than 10000 nM, the IC50 (second compound 100 µM) was greater than 10000 nM and the viability, T/C (second compound 1 µM, first compound 0.0316 µM) was 98%. The viability, T/C (second compound 1 µM, first compound 0.1 µM) was 89.7%, the viability, T/C (second compound 1 µM, first compound 0.316 µM) was 96.8% and the viability, T/C (second compound 1 µM, first compound 1 µM) was 93.3%. It also gave a viability, T/C (second compound 1 µM, first compound 3.16 µM) of 89%, a viability, T/C (second compound 1 µM, first compound 10 µM) of 90.7% and a viability, T/C (second compound 3.16 µM, first compound 0.0316 µM) of 105%. It also gave a viability, T/C (second compound 3.16 µM, first compound 0.1 µM) of 100%, a viability, T/C (second compound 3.16 µM, first compound 0.316 µM) of 96.5% and a viability, T/C (second compound 3.16 µM, first compound 1 µM) of 91.9%. The viability, T/C (second compound 3.16 µM, first compound 3.16 µM) was 86.9%, the viability, T/C (second compound 3.16 µM, first compound 10 µM) was 93.3% and the viability, T/C (second compound 10 µM, first compound 0.0316 µM) was 102%. It also gave a viability, T/C (second compound 10 µM, first compound 0.1 µM) of 99.6%, a viability, T/C (second compound 10 µM, first compound 0.316 µM) of 90.1% and a viability, T/C (second compound 10 µM, first compound 1 µM) of 89.6%. The viability, T/C (second compound 10 µM, first compound 3.16 µM) was 89.9%, the viability, T/C (second compound 10 µM, first compound 10 µM) was 93% and the viability, T/C (second compound 31.6 µM, first compound 0.0316 µM) was 102%. The viability, T/C (second compound 31.6 µM, first compound 0.1 µM) was 97.4%, the viability, T/C (second compound 31.6 µM, first compound 0.316 µM) was 93.3% and the viability, T/C (second compound 31.6 µM, first compound 1 µM) was 89.8%. It also gave a viability, T/C (second compound 31.6 µM, first compound 3.16 µM) of 90.7%, a viability, T/C (second compound 31.6 µM, first compound 10 µM) of 96.1% and a viability, T/C (second compound 100 µM, first compound 0.0316 µM) of 95%. It also gave a viability, T/C (second compound 100 µM, first compound 0.1 µM) of 99.9%, a viability, T/C (second compound 100 µM, first compound 0.316 µM) of 87.7% and a viability, T/C (second compound 100 µM, first compound 1 µM) of 83.9%. For the same compound, the viability, T/C (second compound 100 µM, first compound 3.16 µM) was 87% and the viability, T/C (second compound 100 µM, first compound 10 µM) was 83.5%.
